Laboratory results: ChEMBL document CHEMBL1134448, “Design, synthesis, and proposed active site binding analysis of monocyclic 2-azetidinone inhibitors of prostate specific antigen” (J Med Chem, 2001)

Target: Prostate-specific antigen (KLK3) (Homo sapiens) (UniProt P07288)
Assay: Inhibition of Prostate specific antigen PSA (Serine Protease)

Sequence of Prostate-specific antigen (KLK3) (Homo sapiens) (P07288 whole entry, looked up): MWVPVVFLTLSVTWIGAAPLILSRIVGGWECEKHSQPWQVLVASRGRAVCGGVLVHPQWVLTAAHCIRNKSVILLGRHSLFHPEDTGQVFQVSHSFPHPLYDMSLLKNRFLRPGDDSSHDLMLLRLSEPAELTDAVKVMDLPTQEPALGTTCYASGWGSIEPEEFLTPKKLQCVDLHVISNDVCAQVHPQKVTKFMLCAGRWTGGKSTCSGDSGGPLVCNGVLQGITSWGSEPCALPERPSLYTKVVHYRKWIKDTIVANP

| Compound | IC50 |
| --- | --- |
| O=C(O)c1ccc(COC(=O)[C@@H]2[C@H](Cc3ccc(O)cc3)C(=O)N2C(=O)Cc2cccc(C(=O)OCc3ccccc3)c2)cc1 | 3.5 µM |
| O=C(O)c1ccc(COC(=O)[C@@H]2[C@H](Cc3ccccc3)C(=O)N2C(=O)Cc2cccc(C(=O)OCc3ccccc3)c2)cc1 | 8.98 µM |
| O=C(O)c1ccc(COC(=O)c2cccc(CC(=O)N3C(=O)[C@@H](Cc4ccccc4)[C@H]3C(=O)OCc3ccc(C(=O)O)cc3)c2)cc1 | 5.84 µM |
| O=C(OCc1ccccc1)c1cccc(CC(=O)N2C(=O)[C@@H](Cc3ccccc3)[C@H]2C(=O)OCc2ccccc2)c1 | 1.43 µM |

Now from value to molecule:

| IC50 | Compound |
| --- | --- |
| 0.348 µM | O=C(OCc1ccccc1)c1cccc(CC(=O)N2C(=O)[C@@H](Cc3ccc(O)cc3)[C@H]2C(=O)OCc2ccccc2)c1 (stereo in doubt; 16) |
| 0.226 µM | O=C(OCc1ccccc1)c1cccc(CC(=O)N2C(=O)[C@@H](Cc3ccc(O)cc3)[C@H]2C(=O)OCc2ccccc2)c1 (stereo in doubt; (3S,4S)-18) |
